Results on one compound are retold here after patent US9631170B2, “Genetically inducible hydrogen peroxide resistance and production” (University of Wyoming, priority 2011, dated 2017).

Structures are written as SMILES.

The subject of one assay is plant chloroplasts. To be noted: H2O2 concentrations as low as 10 μM; cited from earlier work.
The test system of assay [1] is Synechococcus elongatus PCC 7942. To be noted: non-linear regression of dose response data, FIG. 11; wild type vs insertional katG null mutant.
Method: These experiments generate dose response curves for growth versus H2O2-based algaecide concentration. […] EC50 for growth rate is determined from non-linear regression curves fitted to growth rate data from 5-7 experimental replicates at 5 to 7 stress doses. To fit curves, non-linear regressions are applied to the dose response data and the fit of the regression curve to the log-logistic equation will be F-tested.
One of these strains was a wild type (WT) and one was an insertional null mutant for the major cyanobacterial catalase encoded by the katG gene.

As to `OO` [H2O2, hydrogen peroxide], in the assay on plant chloroplasts, the “decrease of photosynthetic carbon fixation” value is on record as 50%. Further, in assay [1], the “resistance to exogenous H2O2 of wild type relative to katG null mutant lacking catalase activity” value is recorded as approximately 2 fold.
